Assay results taken from ChEMBL document CHEMBL5360657, “Discovery of the TLR7/8 Antagonist MHV370 for Treatment of Systemic Autoimmune Diseases” (ACS Med Chem Lett, 2023).
pIC50: −log10 of the molar value.

How the values were obtained:
[1] = target: Toll-like receptor 7 (Mus musculus) (UniProt P58681); assay: In vivo antagonist activity against TLR7 in mouse assessed as inhibition of IFN alpha level at 10 mg/kg, po measured after 2 hrs by LC-MS/MS analysis relative to control
[2] = target: Toll-like receptor 7 (Mus musculus) (UniProt P58681); assay: In vivo antagonist activity against TLR7 in mouse assessed as suppression of IFN alpha level at 30 mg/kg, po measured at 3 hrs by LC-MS/MS analysis
Toll-like receptor 9 [3] = target: T1, Toll-like receptor 9 (Mus musculus, UniProt Q9EQU3); assay: Antagonist activity at TLR9 in mouse Whole blood cell assessed as reduction in IFN-alpha level measured after 20 hrs by AlphaLISA method; format: tissue-based
T1 sequence (Q9EQU3 whole entry): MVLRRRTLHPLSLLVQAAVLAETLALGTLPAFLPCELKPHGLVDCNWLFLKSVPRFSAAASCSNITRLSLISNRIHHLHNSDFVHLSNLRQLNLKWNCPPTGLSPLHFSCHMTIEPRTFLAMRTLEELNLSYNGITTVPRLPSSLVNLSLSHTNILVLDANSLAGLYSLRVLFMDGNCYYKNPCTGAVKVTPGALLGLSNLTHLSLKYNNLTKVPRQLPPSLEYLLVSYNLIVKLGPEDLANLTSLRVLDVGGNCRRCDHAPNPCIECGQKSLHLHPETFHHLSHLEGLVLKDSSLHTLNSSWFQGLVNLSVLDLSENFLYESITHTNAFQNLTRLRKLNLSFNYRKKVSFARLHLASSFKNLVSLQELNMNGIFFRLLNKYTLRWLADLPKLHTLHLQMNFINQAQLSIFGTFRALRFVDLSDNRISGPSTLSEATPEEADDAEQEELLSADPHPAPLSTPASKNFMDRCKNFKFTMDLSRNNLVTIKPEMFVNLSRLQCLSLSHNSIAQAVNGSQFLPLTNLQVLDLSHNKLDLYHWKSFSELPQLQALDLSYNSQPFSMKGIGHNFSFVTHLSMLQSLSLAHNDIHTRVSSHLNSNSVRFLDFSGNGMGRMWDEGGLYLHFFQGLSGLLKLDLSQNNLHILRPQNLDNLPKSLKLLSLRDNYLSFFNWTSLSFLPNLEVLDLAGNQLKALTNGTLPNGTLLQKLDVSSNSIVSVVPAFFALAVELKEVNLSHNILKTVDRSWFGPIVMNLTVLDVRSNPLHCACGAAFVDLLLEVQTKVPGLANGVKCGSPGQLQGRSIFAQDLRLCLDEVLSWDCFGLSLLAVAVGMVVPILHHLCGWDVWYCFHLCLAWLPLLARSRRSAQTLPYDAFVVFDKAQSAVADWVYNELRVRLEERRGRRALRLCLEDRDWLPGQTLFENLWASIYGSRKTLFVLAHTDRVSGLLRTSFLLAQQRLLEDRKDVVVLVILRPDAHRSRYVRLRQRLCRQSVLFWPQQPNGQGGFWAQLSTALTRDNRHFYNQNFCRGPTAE

[4] = target: Toll-like receptor 7 (Mus musculus) (UniProt P58681); assay: In vivo antagonist activity against TLR7 in po dosed mouse assessed as suppression of IFN alpha level measured at 3 hrs by LC-MS/MS analysis; conditions: dose 1-30 mg/kg
[5] = target: Toll-like receptor 7 (Mus musculus) (UniProt P58681); assay: In vivo antagonist activity against TLR7 in mouse assessed as suppression of IFN alpha level at 1 mg/kg, po measured at 3 hrs by LC-MS/MS analysis
[6] = target: Toll-like receptor 7 (Mus musculus) (UniProt P58681); assay: In vivo antagonist activity against TLR7 in mouse assessed as suppression of IFN alpha level at 10 mg/kg, po measured at 3 hrs by LC-MS/MS analysis
Toll-like receptor 4 = target: T2, Toll-like receptor 4 (Mus musculus, UniProt Q9QUK6); assay: Antagonist activity at TLR4 in mouse Whole blood cell assessed as reduction in IL-6 level measured after 20 hrs by HTRF method; format: tissue-based
T2 sequence (Q9QUK6 whole entry): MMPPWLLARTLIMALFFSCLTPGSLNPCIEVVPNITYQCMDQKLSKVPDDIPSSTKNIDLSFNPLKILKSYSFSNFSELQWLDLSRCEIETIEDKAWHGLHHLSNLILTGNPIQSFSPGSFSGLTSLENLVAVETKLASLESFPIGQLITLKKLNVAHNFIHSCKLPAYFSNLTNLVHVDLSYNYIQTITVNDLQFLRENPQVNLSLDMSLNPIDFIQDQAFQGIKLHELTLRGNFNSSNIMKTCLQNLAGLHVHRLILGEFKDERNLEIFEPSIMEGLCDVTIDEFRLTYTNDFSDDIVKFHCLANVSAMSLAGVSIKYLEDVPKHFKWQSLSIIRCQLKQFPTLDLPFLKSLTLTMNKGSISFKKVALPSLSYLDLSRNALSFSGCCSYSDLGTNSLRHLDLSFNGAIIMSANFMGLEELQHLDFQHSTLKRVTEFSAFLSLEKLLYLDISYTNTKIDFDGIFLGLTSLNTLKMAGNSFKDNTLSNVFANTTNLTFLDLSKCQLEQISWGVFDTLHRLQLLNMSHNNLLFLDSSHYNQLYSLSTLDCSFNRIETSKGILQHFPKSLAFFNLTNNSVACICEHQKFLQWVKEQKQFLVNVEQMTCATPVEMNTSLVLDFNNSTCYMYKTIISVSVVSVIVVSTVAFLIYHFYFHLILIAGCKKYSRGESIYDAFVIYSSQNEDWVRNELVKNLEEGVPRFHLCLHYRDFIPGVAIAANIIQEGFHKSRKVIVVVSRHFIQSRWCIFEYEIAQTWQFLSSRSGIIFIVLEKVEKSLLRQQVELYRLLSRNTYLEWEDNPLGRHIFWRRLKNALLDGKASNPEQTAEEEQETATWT

[7] = target: Toll-like receptor 7 (Mus musculus) (UniProt P58681); assay: In vivo antagonist activity against TLR7 in mouse assessed as inhibition of TNF level at 10 mg/kg, po measured after 2 hrs by LC-MS/MS analysis relative to control
Toll-like receptor 9 [8] = target: T1, Toll-like receptor 9; assay: Antagonist activity at TLR9 in mouse Splenocyte assessed as reduction in IFN-alpha level measured after 20 hrs by Spectramax M5 method; format: cell-based
[9] = Clearance in mouse at 3 mg/kg, iv; format: ADME, organism-based; conditions: in vivo
[10] = MRT in mouse at 20 mg/kg, po; format: ADME, organism-based; conditions: in vivo
[11] = Cmax in mouse at 3 mg/kg, iv; format: ADME, organism-based; design: dose 3 mg/kg, route iv; conditions: in vivo
[12] = Half life in mouse at 3 mg/kg, iv; format: ADME, organism-based; conditions: in vivo
[13] = Tlast in mouse at 20 mg/kg, po; format: ADME, organism-based; conditions: in vivo
[14] = Clast in mouse at 20 mg/kg, po; format: ADME, organism-based; conditions: in vivo, read-out: Clast
[15] = Cmax in mouse at 20 mg/kg, po; format: ADME, organism-based; design: dose 20 mg/kg, route po; conditions: in vivo
[16] = Inhibition of CYP2D9 (unknown origin); format: ADME, Homo sapiens

Cc1cc(N2CCc3c(c(C)nn3CC34CCC(NC(=O)[C@@H]5COCCN5)(CC3)CC4)C2)c2cnn(C)c2n1 [MHV-370]
inhibition in vivo at 10 mg/kg [1]: ~100% | Activity [2]: 1347 ng/mL | pIC50 (Toll-like receptor 9 [3]): < 5.00 | Activity [4]: Dose-Dependent Effect | Activity [5]: 25 ng/mL | Activity [6]: 550 ng/mL | pIC50 (Toll-like receptor 4): < 5.00 | inhibition in vivo at 10 mg/kg [7]: ~100% | pIC50 (Toll-like receptor 9 [8]): < 6.00

Cc1cc(N2CCc3c(c(C)nn3CC34CCC(N)(CC3)CC4)C2)c2cnn(C)c2n1
clearance [9]: 24 mL/min/kg | MRT [10]: 2.9 h | Cmax [11]: 321 nM | t1/2 [12]: 2.1 h | Tlast [13]: 7 h | concentration [14]: 35 nM | Cmax [15]: 321 nM | pIC50 [16]: < 4.60
